According to the supplement of paper PMC8612539:
In brackets after ≈: the same amount, converted by molar mass.

Tested on: Escherichia coli
Test: minimum inhibitory concentration (MIC)
Method: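 Broth microdilution MIC (Sensititre BOPO7F bovine plate, CLSI methods) of 19 antimicrobials against field isolates of P. multocida, M. haemolytica, H. somni (deep nasopharyngeal swabs) and E. coli, Enterococcus spp. (rectal swabs) from weaned dairy heifers. Incubation 16-24 h at 35 C. MIC is the lowest concentration preventing visible growth. Values with <= or > lie at the tested range limits. Trimethoprim-sulfamethoxazole is given as the trimethoprim component of a 1:19 mixture.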

CN[C@@H]1[C@H](O)[C@H](NC)[C@H]2O[C@@]3(O)C(=O)C[C@@H](C)O[C@H]3O[C@@H]2[C@H]1O [Spectinomycin]
Settings	minimum inhibitory concentration [µg/mL]
isolate (source animal id): 8	16 (≈ 48.1 µM)
isolate (source animal id): 9	> 64
isolate (source animal id): 10	64 (≈ 193 µM)
isolate (source animal id): 11	16 (≈ 48.1 µM)
isolate (source animal id): 12	32 (≈ 96.3 µM)
isolate (source animal id): 13	16 (≈ 48.1 µM)
isolate (source animal id): 14	> 64
isolate (source animal id): 15	16 (≈ 48.1 µM)
isolate (source animal id): 16	16 (≈ 48.1 µM)
isolate (source animal id): 98	16 (≈ 48.1 µM)
isolate (source animal id): 99	16 (≈ 48.1 µM)
isolate (source animal id): 100	≤ 8
isolate (source animal id): 101	> 64
isolate (source animal id): 102	16 (≈ 48.1 µM)
isolate (source animal id): 103	> 64
isolate (source animal id): 104	16 (≈ 48.1 µM)
isolate (source animal id): 105	16 (≈ 48.1 µM)
isolate (source animal id): 106	32 (≈ 96.3 µM)
isolate (source animal id): 107	16 (≈ 48.1 µM)
isolate (source animal id): 108	16 (≈ 48.1 µM)
isolate (source animal id): 109	16 (≈ 48.1 µM)
isolate (source animal id): 110	≤ 8
isolate (source animal id): 111	16 (≈ 48.1 µM)
isolate (source animal id): 112	16 (≈ 48.1 µM)
isolate (source animal id): 113	16 (≈ 48.1 µM)
isolate (source animal id): 114	16 (≈ 48.1 µM)
isolate (source animal id): 115	> 64
isolate (source animal id): 116	16 (≈ 48.1 µM)
isolate (source animal id): 117	> 64
isolate (source animal id): 118	16 (≈ 48.1 µM)
isolate (source animal id): 119	> 64
isolate (source animal id): 120	> 64
isolate (source animal id): 121	> 64
isolate (source animal id): 122	> 64
isolate (source animal id): 123	16 (≈ 48.1 µM)
isolate (source animal id): 124	> 64
isolate (source animal id): 125	> 64
isolate (source animal id): 126	> 64
isolate (source animal id): 127	> 64
isolate (source animal id): 128	> 64
isolate (source animal id): 129	16 (≈ 48.1 µM)
isolate (source animal id): 130	> 64
isolate (source animal id): 131	16 (≈ 48.1 µM)
isolate (source animal id): 132	16 (≈ 48.1 µM)
isolate (source animal id): 133	> 64
isolate (source animal id): 134	16 (≈ 48.1 µM)
isolate (source animal id): 135	16 (≈ 48.1 µM)
isolate (source animal id): 136	16 (≈ 48.1 µM)
isolate (source animal id): 137	16 (≈ 48.1 µM)
isolate (source animal id): 138	> 64
